Drawing on the OligoGym collection, this text covers remaining target (mRNA or protein) (fraction of control) for 58 sequences.

Values joined by “and” are separate entries in the source; they are usually repeats but may differ in a detail not shown here. Equal values may be shown once. These antisense oligonucleotides have a phosphorothioate backbone; sugars and methylation of C are not fully specified.

Among the targets are ERBB2; SELE; DUSP9.
Holding throughout (conditions): ASO
Further: test concentration or dose not given here.

Sequence CTGGTTCACACTGGCACG came in with a remaining target (mRNA or protein) (fraction of control) with ERBB2 of 0.4.

Sequence CTGTGAAGCAATCATGAC registered a remaining target (mRNA or protein) (fraction of control) with SELE of 0.96.

With CTTTCCTGGGGAGATAAA, the remaining target (mRNA or protein) (fraction of control) in the data set with SELE is 0.96.

In the data set with SELE, GAAATACTTTCCTCCGTTTTG gave a remaining target (mRNA or protein) (fraction of control) of at least 1.

GAAATACTTTCCTGGGGAGAT registered a remaining target (mRNA or protein) (fraction of control) with SELE of 0.81.

The sequence GAAGTCAGCCAAGAACAGCT gave a remaining target (mRNA or protein) (fraction of control) with SELE of 0.5.

In turn, GACAATATACAAACCTTCCAT returned a remaining target (mRNA or protein) (fraction of control) in the data set with SELE of 0.65.

With GACAGAAATGAATGACTGTG, the remaining target (mRNA or protein) (fraction of control) in the data set with DUSP9 was 0.14.

As to GACCACGACCAGCAGAAT, the remaining target (mRNA or protein) (fraction of control) with ERBB2 worked out at 0.76.

In the data set with ERBB2, GACCATAGCACACTCGGG gave a remaining target (mRNA or protein) (fraction of control) of 0.57.

Consider GACCCCATCTCCTCCGGCGG, for which the remaining target (mRNA or protein) (fraction of control) in the data set with DUSP9 worked out at 0.23.

In the data set with SELE, GACTTCAAGAGTTCT registered a remaining target (mRNA or protein) (fraction of control) of 0.82.

In the data set with SELE, GAGTTCTTTTCACCC gave a remaining target (mRNA or protein) (fraction of control) of 0.63.

In turn, GATGTGAAGTCAGCCAA registered a remaining target (mRNA or protein) (fraction of control) with SELE of 0.51.

In the case of GCACCACCTGGCAGCCCT, the remaining target (mRNA or protein) (fraction of control) with ERBB2 came to 0.73.

On to GCACGAAGCAGAGGTGGG, for which the remaining target (mRNA or protein) (fraction of control) with ERBB2 turned out to be 0.47.

Consider GCACTTCTCACACCGCTG, for which the remaining target (mRNA or protein) (fraction of control) with ERBB2 amounted to 0.51.

For GCAGCCGAGCCAGCCCGA, in the data set with ERBB2, the remaining target (mRNA or protein) (fraction of control) worked out at 0.61.

As to GCAGCGGGAGCCCTTACA, the remaining target (mRNA or protein) (fraction of control) with ERBB2 is 0.83.

For the sequence GCATGTCACAGCTGTAACAAA, in the data set with SELE, the remaining target (mRNA or protein) (fraction of control) was found to be 0.5.

In the case of GCCACGCTCAGCGCCCCACC, in the data set with DUSP9, the remaining target (mRNA or protein) (fraction of control) amounted to 0.94.

As for GCCAGGGCATAGTTGTCC, in the data set with ERBB2, the remaining target (mRNA or protein) (fraction of control) was determined as 0.81.

Turning to GCCCAGACCCTCCATGGGCG, the remaining target (mRNA or protein) (fraction of control) in the data set with DUSP9 is 0.92.

GCTGGTTGTTCTTGTGGA showed a remaining target (mRNA or protein) (fraction of control) in the data set with ERBB2 of 0.73.

Take GGAATGCAAAGCACATCCAT: the remaining target (mRNA or protein) (fraction of control) with SELE was determined as 0.71.

In the case of GGCAGTGTTGGAGGCTGG, in the data set with ERBB2, the remaining target (mRNA or protein) (fraction of control) turned out to be 0.57.

In the data set with SELE, GGCTTGAAATACTTTCCT registered a remaining target (mRNA or protein) (fraction of control) of 0.84.

Regarding GGGAACTCAAGCAGGAAG, the remaining target (mRNA or protein) (fraction of control) with ERBB2 was found to be 0.68.

Consider GGGCCAGAGACCCGAGGAGA, for which the remaining target (mRNA or protein) (fraction of control) with SELE was found to be 0.46.

As for GGGCCCCGCAGCAGCAAAAG, in the data set with DUSP9, the remaining target (mRNA or protein) (fraction of control) is 0.35.

As to GGGCGCTCCGCTCTGCTCGG, the remaining target (mRNA or protein) (fraction of control) in the data set with DUSP9 came out at 0.8.

Take GGGGAGATAAAACACAAAATG: in the data set with SELE, the remaining target (mRNA or protein) (fraction of control) worked out at 0.79.

GGGTGGCACGGCAAACAG had a remaining target (mRNA or protein) (fraction of control) with ERBB2 of 0.81.

Turning to GGGTGGTATTGTTCAGCG, the remaining target (mRNA or protein) (fraction of control) with ERBB2 amounted to 0.94.

GGTCTCGGGACTGGCAGG displayed a remaining target (mRNA or protein) (fraction of control) with ERBB2 of 0.68.

As to GTATGGAAGATTATAATATAT, the remaining target (mRNA or protein) (fraction of control) with SELE was determined as 0.59.

With GTGGATGTCAGGCAGATG, the remaining target (mRNA or protein) (fraction of control) in the data set with ERBB2 was 0.86.

As to GTGGCACACACCCTTCCTGA, the remaining target (mRNA or protein) (fraction of control) with DUSP9 was at least 1.

The sequence GTGGTTGAAGTGGAGGCA showed a remaining target (mRNA or protein) (fraction of control) in the data set with ERBB2 of 0.98.

Consider GTTCACAACTGAAAAAGAAAC, for which the remaining target (mRNA or protein) (fraction of control) with SELE came out at 0.51.

In turn, GTTGGGCATCGCTCCGCT came in with a remaining target (mRNA or protein) (fraction of control) with ERBB2 of 0.59.

Turning to GTTTAAGGCAGCATCCTAAGA, the remaining target (mRNA or protein) (fraction of control) with SELE was 0.38.

On to TATAGGAGTTTTGATGTGAA, for which the remaining target (mRNA or protein) (fraction of control) in the data set with SELE was determined as 0.74.

Turning to TCACCCAAAGGTTTAGGCTTG, the remaining target (mRNA or protein) (fraction of control) in the data set with SELE was 0.1.

In the data set with ERBB2, TCAGGTTTCACACCGCTG yielded a remaining target (mRNA or protein) (fraction of control) of 0.66.

For the sequence TCCATGGGCGATCGGCTCCC, the remaining target (mRNA or protein) (fraction of control) in the data set with DUSP9 worked out at 0.74.

TCCTCTCTTCCAGAGCACCC came in with a remaining target (mRNA or protein) (fraction of control) with SELE of at least 1.

In the data set with ERBB2, TCGGAGCCAGCCCCTTCG came in with a remaining target (mRNA or protein) (fraction of control) of 0.53.

TGAAGCAATCATGACTTCAAG: the remaining target (mRNA or protein) (fraction of control) in the data set with SELE is ≥ 1 and 0.51.

Take TGAAGTCAGCCAAGAACAGCT: the remaining target (mRNA or protein) (fraction of control) with SELE came out at 0.08.

Consider TGACAACACCAGTGATGGCA, for which the remaining target (mRNA or protein) (fraction of control) in the data set with DUSP9 is 0.52.

In the case of TGATGCCAGCAGAAGTCA, the remaining target (mRNA or protein) (fraction of control) with ERBB2 worked out at 0.94.

TGGAGCTTCTGCATGAGGTA yielded a remaining target (mRNA or protein) (fraction of control) with DUSP9 of 0.75.

As for TGGGCAGGGACACCCGTGGG, the remaining target (mRNA or protein) (fraction of control) with DUSP9 was found to be 0.79.

In turn, TGGGCGATCGGCTCCCTACA showed a remaining target (mRNA or protein) (fraction of control) in the data set with DUSP9 of 0.91.

Regarding TTCCCCAGATGCACCTGTTT, the remaining target (mRNA or protein) (fraction of control) with SELE came out at 0.02.

Turning to TTCTGCTGCCGTCGCTTG, the remaining target (mRNA or protein) (fraction of control) in the data set with ERBB2 was found to be 0.75.

TTGACACACTGGGTGGGC registered a remaining target (mRNA or protein) (fraction of control) with ERBB2 of 0.61.
